Laboratory results: paper doi:10.1101/2019.12.11.872838v1 (biorxiv, 2019)

Target: KDM1A (Homo sapiens, UniProt O60341)
Experiment: ALPHA screen demethylation assay
Type: biochemical

For `CO[C@H]1/C=C\C=C(/C)C(=O)NC2=CC(=O)C(NCCN(C)C)=C(C[C@@H](C)C[C@H](OC)[C@H](O)[C@@H](C)/C=C(\C)[C@@H]1OC(N)=O)C2=O` [17-DMAG], which IC50 is on record?
The IC50 was greater than 10 µM.
